Test system: cortical organoids
Assay: Pharmacological manipulation of cortical organoid network activity recorded by multi-electrode array (MEA)
Format: cell-based, human
Settings: not given

Row | SMILES | neuronal electrical activity
1 | NC1=N[C@H](O)[C@H]2[C@H]3O[C@]4(O)O[C@@H]([C@@H](O)[C@@]2(N1)[C@@H]4O)[C@]3(O)CO [tetrodotoxin] | blocked

Same assay, conditions: 8-month-old organoids; recording 15 min after addition; 20 μM AP5, 20 μM CNQX, 50 μM muscimol, 25 μM baclofen, 10 μM bicuculline

Row | SMILES | number of bursts / burst activity | synchronous activity / synchrony indexes
2 | NC(CCCP(=O)(O)O)C(=O)O (stereo not drawn) [AP5] | significantly reducing | extinction
3 | N#Cc1cc2[nH]c(=O)c(=O)[nH]c2cc1[N+](=O)[O-] [CNQX] | significantly reducing | extinction
4 | NCC(CC(=O)O)c1ccc(Cl)cc1 (stereo not drawn) [baclofen] | significantly reducing | extinction
5 | NCc1cc(=O)[nH]o1 [muscimol] | significantly reducing | extinction
